The experiment deals with T1, BTK (Homo sapiens, UniProt Q06187).
T1 construct: purified from insect cells as a full-length construct containing a N-terminal 6×-His tag; His6 (N); made in house; host or cells: insect cells (baculovirus, Sf21)
T1 sequence (Q06187 whole entry): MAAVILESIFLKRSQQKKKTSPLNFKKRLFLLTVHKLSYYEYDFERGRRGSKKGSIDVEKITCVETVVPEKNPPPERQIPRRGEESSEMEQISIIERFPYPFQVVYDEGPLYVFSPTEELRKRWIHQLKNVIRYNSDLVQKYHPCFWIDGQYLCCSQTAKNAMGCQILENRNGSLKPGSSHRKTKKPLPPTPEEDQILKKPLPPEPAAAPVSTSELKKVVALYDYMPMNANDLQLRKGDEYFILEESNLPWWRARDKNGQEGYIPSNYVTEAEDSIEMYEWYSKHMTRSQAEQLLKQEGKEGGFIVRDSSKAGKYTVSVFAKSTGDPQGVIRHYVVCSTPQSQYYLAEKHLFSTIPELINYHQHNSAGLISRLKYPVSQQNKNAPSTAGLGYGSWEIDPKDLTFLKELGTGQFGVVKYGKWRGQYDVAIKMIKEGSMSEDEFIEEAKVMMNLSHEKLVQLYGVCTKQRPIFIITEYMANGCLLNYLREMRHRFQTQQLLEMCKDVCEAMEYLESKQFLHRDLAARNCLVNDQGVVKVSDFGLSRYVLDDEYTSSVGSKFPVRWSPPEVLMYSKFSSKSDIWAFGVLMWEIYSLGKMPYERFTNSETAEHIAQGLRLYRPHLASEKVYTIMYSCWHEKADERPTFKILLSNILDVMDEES
As to the kind of experiment: Btk in vitro inhibitory activity / inhibition of a panel of kinases (TR-FRET, mobility shift or radiometric filter binding). To be noted: kinase assay by one of methods A, B or C. In kind it is biochemical. How it is done:
Btk kinase activity is determined using a time-resolved fluorescence resonance energy transfer (TR-FRET) methodology. Measurements are performed in a reaction volume of 50 μL using 96-well assay plates. Kinase enzyme, inhibitor, ATP (at the Km for the kinase), and 1 μM peptide substrate (Biotin-AVLESEEELYSSARQ-NH2) are incubated in a reaction buffer composed of 20 mM Tris, 50 mM NaCl, MgCl2 (5-25 mM depending on the kinase), MnCl2 (0-10 mM), 1 mM DTT, 0.1 mM EDTA, 0.01% bovine serum albumin, 0.005% Tween-20, and 10% DMSO at pH 7.4 for one hour. The reaction is quenched by the addition of 1.2 equivalents of EDTA (relative to divalent cation) in 25 μL of 1× Lance buffer (Perkin-Elmer). Streptavidin-APC (Perkin-Elmer) and Eu-labeled p-Tyr100 antibody (Perkin-Elmer) in 1× Lance buffer are added in a 25 μL volume to give final concentrations of 100 nM and 2.5 nM, respectively, and the mixture is allowed to incubate for one hour. The TR-FRET signal is measured on a multimode plate reader with an excitation wavelength (λEx) of 330 nm and detection wavelengths (λEm) of 615 and 665 nm. Activity is determined by the ratio of the fluorescence at 665 nm to that at 615 nm. For each compound, enzyme activity is measured at various concentrations of compound. Negative control reactions are performed in the absence of inhibitor in replicates of six, and two no-enzyme controls are used to determine baseline fluorescence levels. Inhibition constants, Ki(app), ware obtained using the program BatchKi (Kuzmic et al. (2000), Anal. Biochem. 286:45-50). IC50s are obtained according to the equation: IC50={Ki(app)/(1+[ATP]/Km^ATP)}+[E]total/2;
For all kinases, [ATP]=Km^ATP, [Btk]total=0.5 nM and [Lck]total=6 nM.
Kinase activity is measured in vitro using electrophoretic mobility shift assay. The kinase reactions are assembled in a total volume of 25 μL in 384 well plates. The reactions comprise: BTK enzyme (1 nM, N-terminal His6-tagged, recombinant, full-length, human BTK purified from baculovirus Sf21 insect cell system), inhibitor, ATP ([…] the apparent Km for the kinase), fluorescently labeled peptide substrate (1 μM, FAM-GEEPLYWSFPAKKK-NH2) in a reaction buffer composed of 100 mM HEPES, pH7.5, 5 mM MgCl2 1 mM DTT, 0.1% bovine serum albumin, 0.01% Triton X-100, and 1% DMSO. The reaction is incubated for one hour and is quenched by the addition of 45 μL of termination buffer (100 mM HEPES, pH7.5, 0.01% Triton X-100, 30 mM EDTA). The terminated reactions are analyzed using 12 channel LabChip® 3000 microfluidic detection instrument (Caliper Life Sciences). The enzymatic phosphorylation of the peptide results in a change in net charge, enabling electrophoretic separation of product from substrate peptide. As substrate and product peptides are separated, two peaks of fluorescence are observed. Change in the relative fluorescence intensity of the substrate and product peaks is the parameter measured, reflecting enzyme activity. In the presence of an inhibitor, the ratio between product and substrate is altered: the signal of the product decreases, while the signal of the substrate increases.
Activity in each sample is determined as the product to sum ratio (PSR):P/(S+P), where P is the peak height of the product peptide and S is the peak height of the substrate peptide. For each compound, enzyme activity is measured at various concentrations (12 concentrations of compound spaced by 3× dilution intervals). Negative control samples (0%-inhibition in the absence of inhibitor) and positive control samples (100%-inhibition, in the presence of 20 mM EDTA) are assembled in replicates of four and are used to calculate %-inhibition values for each inhibitor at each concentration. Percent inhibition (Pinh) is determined using following equation: […]
In general terms: Time-resolved FRET reads energy transfer from a long-lived donor to a nearby acceptor.
Broadly, the IC50 is the concentration that gives 50% inhibition. Regarding `COCCN(C)C/C=C/C(=O)N1CC[C@@H](n2c(C3CC3)c(-c3ccc(Oc4ccccc4)cc3)c3c(N)ncnc32)C1` [Compound 96, (R,E)-1-(3-(4-amino-6-cyclopropyl-5-(4-phenoxyphenyl)-7H-pyrrolo[2,3-d]pyrimidin-7-yl)pyrrolidin-1-yl)-4-((2-methoxyethyl)(methyl)amino)but-2-en-1-one], the IC50 was less than 100 nM.

As for `CN(C/C=C/C(=O)N1CC[C@@H](n2c(C3CC3)c(-c3ccc(Oc4ccccc4)cc3)c3c(N)ncnc32)C1)[C@@H]1CCOC1` [Compound 97, (E)-1-((R)-3-(4-amino-6-cyclopropyl-5-(4-phenoxyphenyl)-7H-pyrrolo[2,3-d]pyrimidin-7-yl)pyrrolidin-1-yl)-4-(methyl((R)-tetrahydrofuran-3-yl)amino)but-2-en-1-one], the IC50 is less than 100 nM. With `CN(C/C=C/C(=O)N1CC[C@@H](n2c(C3CC3)c(-c3ccc(Oc4cccc(F)c4)cc3)c3c(N)ncnc32)C1)C1CC1` [Compound 99, (R,E)-1-(3-(4-amino-6-cyclopropyl-5-(4-(3-fluorophenoxy)phenyl)-7H-pyrrolo[2,3-d]pyrimidin-7-yl)pyrrolidin-1-yl)-4-(cyclopropyl(methyl)amino)but-2-en-1-one] the figure was 100 to 1000 nM. Under `CN(C)C/C=C/C(=O)N1CC[C@@H](n2c(C3CC3)c(-c3ccc(Oc4ccccc4)cc3)c3c(N)ncnc32)C1` [Compound 100, (R,E)-1-(3-(4-amino-6-cyclopropyl-5-(4-phenoxyphenyl)-7H-pyrrolo[2,3-d]pyrimidin-7-yl)pyrrolidin-1-yl)-4-(dimethylamino)but-2-en-1-one] stands less than 100 nM. Take `CN(C)C/C=C/C(=O)N1CC[C@@H](n2c(C#N)c(-c3ccc(Oc4ccccc4)cc3)c3c(N)ncnc32)C1` [Compound 102, (R,E)-4-amino-7-(1-(4-(dimethylamino)but-2-enoyl)pyrrolidin-3-yl)-5-(4-phenoxyphenyl)-7H-pyrrolo[2,3-d]pyrimidine-6-carbonitrile]: the IC50 is less than 100 nM. With `CN(C/C=C/C(=O)N1CC[C@@H](n2c(C#N)c(-c3ccc(Oc4ccccc4)cc3)c3c(N)ncnc32)C1)C1CC1` [Compound 103, (R,E)-4-amino-7-(1-(4-(cyclopropyl(methyl)amino)but-2-enoyl)pyrrolidin-3-yl)-5-(4-phenoxyphenyl)-7H-pyrrolo[2,3-d]pyrimidine-6-carbonitrile] the figure was less than 100 nM. Under `COCCN(C)C/C=C/C(=O)N1CC[C@@H](n2c(C#N)c(-c3ccc(Oc4ccccc4)cc3)c3c(N)ncnc32)C1` [Compound 104, (R,E)-4-amino-7-(1-(4-((2-methoxyethyl)(methyl)amino)but-2-enoyl)pyrrolidin-3-yl)-5-(4-phenoxyphenyl)-7H-pyrrolo[2,3-d]pyrimidine-6-carbonitrile] stands less than 100 nM; under `COCCN(C/C=C/C(=O)N1CC[C@@H](n2c(C#N)c(-c3ccc(Oc4ccccc4)cc3)c3c(N)ncnc32)C1)CCOC` [Compound 105, (R,E)-4-amino-7-(1-(4-(bis(2-methoxyethyl)amino)but-2-enoyl)pyrrolidin-3-yl)-5-(4-phenoxyphenyl)-7H-pyrrolo[2,3-d]pyrimidine-6-carbonitrile], less than 100 nM. With `CN(C/C=C/C(=O)N1CC[C@@H](n2c(C#N)c(-c3ccc(Oc4ccccc4)cc3)c3c(N)ncnc32)C1)[C@H]1CCOC1` [Compound 106, 4-amino-7-((R)-1-((E)-4-(methyl((S)-tetrahydrofuran-3-yl)amino)but-2-enoyl)pyrrolidin-3-yl)-5-(4-phenoxyphenyl)-7H-pyrrolo[2,3-d]pyrimidine-6-carbonitrile] the figure was less than 100 nM; with `CN(C/C=C/C(=O)N1CC[C@@H](n2c(C#N)c(-c3ccc(Oc4ccccc4)cc3)c3c(N)ncnc32)C1)[C@@H]1CCOC1` [Compound 107, 4-amino-7-((R)-1-((E)-4-(methyl((R)-tetrahydrofuran-3-yl)amino)but-2-enoyl)pyrrolidin-3-yl)-5-(4-phenoxyphenyl)-7H-pyrrolo[2,3-d]pyrimidine-6-carbonitrile], less than 100 nM. `CN(C/C=C/C(=O)N1CC[C@@H](n2c(C#N)c(-c3ccc(Oc4cccc(F)c4)cc3)c3c(N)ncnc32)C1)C1CC1` [Compound 109, (R,E)-4-amino-7-(1-(4-(cyclopropyl(methyl)amino)but-2-enoyl)pyrrolidin-3-yl)-5-(4-(3-fluorophenoxyl)phenyl)-7H-pyrrolo[2,3-d]pyrimidine-6-carbonitrile]: the IC50 is less than 100 nM. Under `C#Cc1c(-c2ccc(Oc3ccccc3)cc2)c2c(N)ncnc2n1[C@@H]1CCN(C(=O)/C=C/CN(C)C2CC2)C1` [Compound 112, (R,E)-1-(3-(4-amino-6-ethynyl-5-(4-phenoxyphenyl)-7H-pyrrolo[2,3-d]pyrimidin-7-yl)pyrrolidin-1-yl)-4-(cyclopropyl(methyl)amino)but-2-en-1-one] stands less than 100 nM; under `CCc1c(-c2ccc(Oc3ccccc3)cc2)c2c(N)ncnc2n1[C@@H]1CCN(C(=O)/C=C/CN(C)C2CC2)C1` [Compound 115, (R,E)-1-(3-(4-amino-6-ethyl-5-(4-phenoxyphenyl)-7H-pyrrolo[2,3-d]pyrimidin-7-yl)pyrrolidin-1-yl)-4-(cyclopropyl(methyl)amino)but-2-en-1-one], 100 to 1000 nM; under `CC(C)c1c(-c2ccc(Oc3ccccc3)cc2)c2c(N)ncnc2n1[C@@H]1CCN(C(=O)/C=C/CN(C)C2CC2)C1` [Compound 118, (R,E)-1-(3-(4-amino-6-isopropyl-5-(4-phenoxyphenyl)-7H-pyrrolo[2,3-d]pyrimidin-7-yl)pyrrolidin-1-yl)-4-(cyclopropyl(methyl)amino)but-2-en-1-one], 100 to 1000 nM. For the compound `CN(C/C=C/C(=O)N1CC[C@@H](n2c(C(F)F)c(-c3ccc(Oc4ccccc4)cc3)c3c(N)ncnc32)C1)C1CC1` [Compound 122, (R,E)-1-(3-(4-amino-6-(difluoromethyl)-5-(4-phenoxyphenyl)-7H-pyrrolo[2,3-d]pyrimidin-7-yl)pyrrolidin-1-yl)-4-(cyclopropyl(methyl)amino)but-2-en-1-one], the half-maximal inhibitory concentration (IC50) was less than 100 nM. Consider `CN(C/C=C/C(=O)N1CC[C@@H](n2c(-c3ncco3)c(-c3ccc(Oc4ccccc4)cc3)c3c(N)ncnc32)C1)C1CC1` [Compound 124, (R,E)-1-(3-(4-amino-6-(oxazol-2-yl)-5-(4-phenoxyphenyl)-7H-pyrrolo[2,3-d]pyrimidin-7-yl)pyrrolidin-1-yl)-4-(cyclopropyl(methyl)amino)but-2-en-1-one], for which the IC50 is less than 100 nM.

In the case of `CN(C/C=C/C(=O)N1CC[C@@H](n2c(C(N)=O)c(-c3ccc(Oc4ccccc4)cc3)c3c(N)ncnc32)C1)C1CC1` [Compound 126, (R,E)-4-amino-7-(1-(4-(cyclopropyl(methyl)amino)but-2-enoyl)pyrrolidin-3-yl)-5-(4-phenoxyphenyl)-7H-pyrrolo[2,3-d]pyrimidine-6-carboxamide], the IC50 was less than 100 nM.

Regarding `CN(C/C=C/C(=O)N1CC[C@@H](n2c(C(=O)O)c(-c3ccc(Oc4ccccc4)cc3)c3c(N)ncnc32)C1)C1CC1` [Compound 128, (R,E)-4-amino-7-(1-(4-(cyclopropyl(methyl)amino)but-2-enoyl)pyrrolidin-3-yl)-5-(4-phenoxyphenyl)-7H-pyrrolo[2,3-d]pyrimidine-6-carboxylic acid], the IC50 is less than 100 nM.
